Data on eight compounds can be found in PubChem BioAssay AID588681 (The Scripps Research Institute Molecular Screening Center, 2011).

The source made the active and inactive calls.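 Rule for the calls: active = half-maximal IDE activation concentration EC50 of 10 µM or lower; inactive = EC50 above 10 µM.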

For the assay, the target named is Insulin-degrading enzyme (Homo sapiens) (UniProt P14735). As to the kind of experiment: activators of recombinant IDE enzyme, dose response, counter-screen for IDE activator project, biochemical, fluorescence polarization (AID 588681). As to conditions: FAbetaB cleavage. For orientation: The purpose of a counterscreen is to sort out artefacts and off-target activity.
Sequence of Insulin-degrading enzyme (Homo sapiens) (P14735 whole entry, looked up): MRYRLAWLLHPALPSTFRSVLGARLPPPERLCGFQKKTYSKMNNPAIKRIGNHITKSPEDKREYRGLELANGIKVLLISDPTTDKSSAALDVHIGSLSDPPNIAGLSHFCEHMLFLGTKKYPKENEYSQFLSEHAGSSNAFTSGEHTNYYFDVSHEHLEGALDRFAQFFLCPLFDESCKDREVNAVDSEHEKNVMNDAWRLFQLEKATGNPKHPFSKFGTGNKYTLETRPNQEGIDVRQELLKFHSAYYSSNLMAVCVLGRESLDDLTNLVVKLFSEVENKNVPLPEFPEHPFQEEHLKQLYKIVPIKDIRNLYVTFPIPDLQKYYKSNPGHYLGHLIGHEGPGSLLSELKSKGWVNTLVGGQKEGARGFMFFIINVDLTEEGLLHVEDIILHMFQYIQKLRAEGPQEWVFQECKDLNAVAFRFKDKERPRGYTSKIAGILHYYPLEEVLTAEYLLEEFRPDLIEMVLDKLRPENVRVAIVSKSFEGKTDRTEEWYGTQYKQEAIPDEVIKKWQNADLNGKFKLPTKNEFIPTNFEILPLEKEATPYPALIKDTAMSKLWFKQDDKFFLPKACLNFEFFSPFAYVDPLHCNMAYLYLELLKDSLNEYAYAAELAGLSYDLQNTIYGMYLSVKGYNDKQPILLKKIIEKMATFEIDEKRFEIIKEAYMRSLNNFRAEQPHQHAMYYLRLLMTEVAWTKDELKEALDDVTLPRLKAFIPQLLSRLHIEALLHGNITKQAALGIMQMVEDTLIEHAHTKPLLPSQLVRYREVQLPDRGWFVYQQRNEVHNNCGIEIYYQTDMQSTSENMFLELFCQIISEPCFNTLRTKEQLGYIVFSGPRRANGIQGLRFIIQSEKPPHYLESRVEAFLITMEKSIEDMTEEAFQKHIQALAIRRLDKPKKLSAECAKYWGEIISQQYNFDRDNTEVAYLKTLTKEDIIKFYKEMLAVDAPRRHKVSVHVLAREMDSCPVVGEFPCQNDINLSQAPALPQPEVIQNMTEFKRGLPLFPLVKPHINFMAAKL
The term EC50 denotes the midpoint of the concentration-response curve. Regarding `C#CCOCCOCCOCCNc1nc(N2CCN(C(=O)CCCCCCCCCCNC(=O)Cn3cc(CCCCCN)nn3)CC2)nc(N2CCN(C(=O)CCCCCCCCCCNC(=O)Cn3cc(C[C@@H](C)O)nn3)CC2)n1`, the EC50 is > 54.7 µM (inactive).

Consider `C#CCOCCOCCOCCNc1nc(N2CCN(C(=O)CCCCCCCCCCNC(=O)[C@@H](CCSC)n3cc(CCO)nn3)CC2)nc(N2CCN(C(=O)CCCCCCCCCCNC(=O)[C@H](CO)n3cc(CCCCCN)nn3)CC2)n1`, for which the EC50 entry was “inactive”.

In the case of `C#CCOCCOCCOCCNc1nc(N2CCN(C(=O)CCCCCCCCCCNC(=O)Cn3cc(CCCCCN)nn3)CC2)nc(N2CCN(C(=O)CCCCCCCCCCNC(=O)[C@H](CO)n3cc(CCCSC)nn3)CC2)n1`, the EC50 result is “inactive”.

In the case of `C#CCOCCOCCOCCNc1nc(N2CCN(C(=O)CCCCCCCCCCNC(=O)[C@H](CCCCN)n3cc(CCO)nn3)CC2)nc(N2CCN(C(=O)CCCCCCCCCCNC(=O)[C@H](CCCN=C(N)N)n3cc(C[C@@H](C)CC)nn3)CC2)n1`, the concentration giving a half-maximal response (EC50) is 7.08 µM.

On to `C#CCOCCOCCOCCNc1nc(N2CCN(C(=O)CCCCCCCCCCNC(=O)Cn3cc(C[C@@H](C)O)nn3)CC2)nc(N2CCN(C(=O)CCCCCCCCCCNC(=O)[C@H](CCCN=C(N)N)n3cc(C[C@@H](C)CC)nn3)CC2)n1`, for which the 50% effective concentration (EC50) is 6.55 µM.

With `C#CCOCCOCCOCCNc1nc(N2CCN(C(=O)CCCCCCCCCCNC(=O)[C@H]([C@@H](C)CC)n3cc(CCCCCN)nn3)CC2)nc(N2CCN(C(=O)CCCCCCCCCCNC(=O)[C@H]([C@@H](C)CC)n3cc(CCCCN=C(N)N)nn3)CC2)n1`, the EC50 is 2.32 µM.

In the case of `C#CCOCCOCCOCCNc1nc(N2CCN(C(=O)CCCCCCCCCCNC(=O)[C@H](CO)n3cc(CCCSC)nn3)CC2)nc(N2CCN(C(=O)CCCCCCCCCCNC(=O)[C@H](CCCCN)n3cc(CCO)nn3)CC2)n1`, the EC50 is > 54.7 µM (inactive).

Take `C#CCOCCOCCOCCNc1nc(N2CCN(C(=O)CCCCCCCCCCNC(=O)Cn3cc(CCCCCN)nn3)CC2)nc(N2CCN(C(=O)CCCCCCCCCCNC(=O)[C@H]([C@@H](C)CC)n3cc(CCCCCN)nn3)CC2)n1`: the EC50 is 8.55 µM.
